The source of these data is patent publication US6492365B1, “Microsomal triglyceride transfer protein” (Bristol-Myers Squibb Company, priority 1992, dated 2002).

Where a name gives a salt, the structure may show the parent alone.

As a reminder, the IC50 is the point on the concentration scale where inhibition reaches its midpoint.

This assay concerns the target T1, bovine MTP (Bos taurus, UniProt P55156).
T1 construct: with about 50-200 ng purified MTP in the well of a 96-well plate; from tissue; host or cells: bovine liver
T1 sequence (P55156 12-887): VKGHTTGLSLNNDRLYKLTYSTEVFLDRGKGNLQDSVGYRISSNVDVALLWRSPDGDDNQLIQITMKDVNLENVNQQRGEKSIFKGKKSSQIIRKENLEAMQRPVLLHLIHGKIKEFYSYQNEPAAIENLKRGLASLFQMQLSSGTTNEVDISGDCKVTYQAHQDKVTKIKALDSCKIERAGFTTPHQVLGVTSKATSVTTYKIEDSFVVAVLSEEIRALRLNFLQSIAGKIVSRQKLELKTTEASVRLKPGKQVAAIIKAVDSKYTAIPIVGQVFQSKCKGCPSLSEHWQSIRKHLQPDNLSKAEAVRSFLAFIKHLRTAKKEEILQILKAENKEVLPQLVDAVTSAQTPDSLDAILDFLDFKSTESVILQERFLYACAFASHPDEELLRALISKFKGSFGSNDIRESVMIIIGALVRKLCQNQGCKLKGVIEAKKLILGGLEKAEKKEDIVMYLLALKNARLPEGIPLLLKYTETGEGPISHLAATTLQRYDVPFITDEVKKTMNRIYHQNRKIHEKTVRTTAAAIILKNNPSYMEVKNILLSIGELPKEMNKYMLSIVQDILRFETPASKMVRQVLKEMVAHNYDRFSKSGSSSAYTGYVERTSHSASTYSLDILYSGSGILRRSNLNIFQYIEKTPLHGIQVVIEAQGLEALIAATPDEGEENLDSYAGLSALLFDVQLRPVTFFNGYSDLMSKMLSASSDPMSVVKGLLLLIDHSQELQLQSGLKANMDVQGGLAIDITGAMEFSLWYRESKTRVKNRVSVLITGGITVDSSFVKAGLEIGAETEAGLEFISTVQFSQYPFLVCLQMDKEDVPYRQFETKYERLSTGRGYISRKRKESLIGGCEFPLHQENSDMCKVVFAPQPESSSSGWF
T1 sequence (P05307 21-510 partner): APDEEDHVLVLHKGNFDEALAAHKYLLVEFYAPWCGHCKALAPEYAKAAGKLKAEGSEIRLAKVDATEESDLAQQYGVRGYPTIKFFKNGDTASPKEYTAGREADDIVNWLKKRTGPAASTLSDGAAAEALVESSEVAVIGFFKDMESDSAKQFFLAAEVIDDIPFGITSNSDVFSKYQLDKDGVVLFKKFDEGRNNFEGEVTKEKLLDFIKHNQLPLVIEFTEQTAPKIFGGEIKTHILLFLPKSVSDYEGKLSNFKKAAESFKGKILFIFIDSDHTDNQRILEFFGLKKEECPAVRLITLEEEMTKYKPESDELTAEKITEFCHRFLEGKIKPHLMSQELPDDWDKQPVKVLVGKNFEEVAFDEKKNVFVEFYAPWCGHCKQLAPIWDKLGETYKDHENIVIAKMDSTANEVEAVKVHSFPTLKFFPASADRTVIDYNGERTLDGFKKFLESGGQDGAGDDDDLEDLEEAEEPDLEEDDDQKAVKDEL
Description: MTP-catalyzed transport of radiolabeled TG from donor SUV to acceptor SUV. Format: biochemical. The conditions noted are these: for IC50: 30 minutes at 37° C., read-out: IC50 for inhibition of MTP-catalyzed TG transport from donor SUV to acceptor SUV. The protocol:
Compound A was dissolved in DMSO and then diluted into 15/40 buffer. Aliquots were added to a lipid transfer assay to bring the compound to the indicated final concentrations. DMSO concentration in the assay never exceeded 2 μL/600 μL, a concentration that was independently determined to have minimal effect on the assay. MTP-catalyzed lipid transport was measured for 30 minutes at 37° C. TG transfer was calculated and compared to a control assay without inhibitor.
Compound B was dissolved in DMSO and then diluted into 15/40 buffer. Aliquots were added to a lipid transfer assay to bring the compound to the indicated final concentrations. DMSO concentration in the assay never exceeded 2 μL/600 μL, a concentration that was independently determined to have minimal effect on the assay. MTP-catalyzed lipid transport was measured for 30 minutes at 37° C. TG transfer was calculated and compared to a control assay without inhibitor.
TG transfer activity was measured as the protein-stimulated rate of TG transfer from donor SUV to acceptor SUV. To prepare donor and acceptor vesicles, the appropriate lipids in chloroform were mixed in a 16×125 mm borosilicate glass screw cap tube (Fisher Scientific Co., Pittsburg, Pa., Cat. no. 14-933-1A) and then dried under a stream of nitrogen. Two mL 15/40 buffer (15 mM Tris, pH 7.4, 40 mM sodium chloride, 1 mM EDTA, and 0.02% NaN3) were added to the dried lipids (or 100 μL per assay, which ever is the least volume), a stream of nitrogen was blown over the buffer, then the cap was quickly screwed on to trap a nitrogen atmosphere over the lipid suspension. […]
The ^14C-TG and ^3H-PC remaining in the supernatant were quantitated by scintillation counting. TG transfer was calculated by comparing the ratio of ^14C-TG (transferred from the donor membranes to the acceptor membranes) to ^3H-PC (a marker of acceptor vesicle recovery) present in the supernatant following a transfer reaction to the ratio of total donor ^14C-TG to acceptor [^3H]PC in the assay before the transfer reaction. The percentage of ^14C-TG transfer was calculated as follows: [formula] […]

For `COc1ccccc1N1CCN(CC2CC(=O)c3ccc(F)cc3C2)CC1` (stereo not drawn) [compound B, 1-[3-(6-fluoro-1-tetralanyl)methyl]-4-O-methoxyphenyl piperazine], the half-inhibitory concentration (IC50) lay within 4 to 6 µM.

In the case of `O=C1c2ccccc2CN1C1CCN(CCC(c2ccccc2)c2ccccc2)CC1` [compound A, 2-[1-(3,3-diphenylpropyl)-4-piperdinyl]-2,3-dihydro-3-oxo-1H-isoindole hydrochloride], the IC50 is roughly 1 µM. Further, the “decrease of TG transfer” value (at concentrations that inhibited approximately 40% of PC transfer) is “more than 80%”.
